Test results: patent publication US20120171123A1, “USES AND COMPOSITIONS FOR TREATMENT OF RHEUMATOID ARTHRITIS” (priority 2006, published 2012)
Marks after values point to notes of the source that are not given here.

Experiments:
[1] = system: patients with severe, active RA; experiment: Study 2 / Study 3 OLE (adalimumab monotherapy): FACIT-F fatigue; assay type: in vivo, human
Protocol: In addition to the SF-36 instrument, the Health Utilities Index Mark 3 (HUI3) and the Functional Assessment of Chronic Illness Therapy-Fatigue (FACIT-F) questionnaires were administered at baseline, 12 weeks, and the end of the study.
The HUI3 scale is 0-1, with “1” denoting perfect health and “0” denoting death. FACIT-F scores range from 0-52, with higher scores representing less fatigue. The SF-36 includes one multi-item scale that assesses eight different dimensions of health, including physical and psychosocial components. For each dimension a value of 0-100 is given, with higher numbers representing less impairment. Changes in HUI3 of ≧0.03, in FACIT-F of ≧4 and in SF-36 of ≧4.4 (physical subscales) and ≧3.1 (mental subscales) are considered clinically meaningful.
All patients studied had severe, active RA. Patients' fatigue was measured by the FACIT-F, which is validated for RA.
FACIT-F was administered at baseline, at 1 or 2 time points during the study, and at the end of the study. The questionnaire asked each patient the following “Below is a list of statements that other people with your illness have said are important. By circling one (1) number per line, please indicate how true each statement has been for you during the past 7 days.” The questions in the questionnaire used to determine the FACIT score included the following, where each patient indicated the appropriate number (0-4): I feel fatigued; I feel weak all over; I feel listless (“washed out”); I feel tired; I have trouble starting things because I am tired; I have trouble finishing things because I am tired; I have energy; I am able to do my usual activities; I need to sleep during the day; I am too tired to eat; I need help doing my usual activities; I am frustrated by being too tired to do the things I want to do; I have to limit my social activity because I am tired. FACIT-F scores range from 0-52, with higher scores representing less fatigue. FACIT-F changes of ≧4 are considered clinically meaningful.
Data were obtained from a health economics companion study to a pivotal trial of adalimumab, which rolled over into a long-term, open-label extension (OLE) study. […] Patients' fatigue was measured by the FACIT-F questionnaire. FACIT-F was administered at baseline, and at several time points during the study. FACIT-F scores range from 0-52, with higher scores representing less fatigue. Changes in FACIT-F scores of ≧4 were considered clinically meaningful.
In addition to clinical parameters, the SF-36 instrument, the Health Utilities Index Mark 3 (HUI3), and the Functional Assessment of Chronic Illness Therapy-Fatigue (FACIT-F) questionnaires were administered at baseline, and at weeks 12, 26, 50, 74, 98, 122, 146 and 170, respectively. The HUI3 scale ranges from 0-1, with “1” denoting perfect health and “0” denoting death. FACIT-F scores range from 0-52, with higher scores representing less fatigue. SF-36 scores range from 0-100 with higher scores indicating improvement in HRQoL. Changes in HUI3 scores of ≧0.03, 1 FACIT-F scores of ≧4, 2 and individual SF-36 domain scores of 5-103 are considered clinically meaningful.

[2] = system: patients with moderate to severe rheumatoid arthritis; experiment: Study C: HAQ; assay type: in vivo, human
Protocol: The Canadian Adalimumab Clinical Trial (Study C) was an open-label, multi-center, Phase IIIb study conducted in Canada. […] Efficacy and safety were assessed at baseline, 4, 8, and 12 weeks. Efficacy assessments included tender joint count (TJC 0-28), swollen joint count (SJC 0-28), Disease Activity Score 28 (DAS28), Health Assessment Questionnaire (HAQ), and EULAR response. This was a preliminary analysis of 236 patients. The sample size for each outcome variable is based on the data available at the time of the analysis. The data from this preliminary analysis were compared with the Week 12 data from Study A (N=2008).

[3] = system: patients with active rheumatoid arthritis; conditions: Study A (N=2008), 12 weeks; cited from earlier work

adalimumab: human anti-TNF mAb (HUMIRA, Abbott Laboratories), described in U.S. Pat. No. 6,090,382 as D2E7
FACIT-F change from baseline ([1]; 12 weeks): 7.2 | mean FACIT-F change from baseline ([1]; week 26 (6 months), monotherapy): 8.5 b, c | mean FACIT-F change from baseline ([1]; week 26 (6 months), monotherapy, listed as ada): 8.5 | mean FACIT-F change from baseline ([1]; week 50): 7.3 ^b | mean FACIT-F change from baseline ([1]; week 98): 7.2 ^b | mean FACIT-F change from baseline ([1]; week 146): 7.1 ^b | mean FACIT-F change from baseline ([1]; week 170): 7.2 ^b | improvement in HAQ score ([2]; 12 weeks): −0.55 | patients achieving HAQ<0.5 ([2]; 12 weeks): 28% | HAQ (mean), change from baseline ([2]; Study C, 12 weeks, preliminary analysis): −0.55 (122) | mean HAQ ([2]; week 12 (baseline 1.4)): 0.86 | EULAR response, % good [3]: 34% | EULAR response, % moderate [3]: 82%
